How the values were obtained:
[1] = test system: phosphoinositol turnover in neonatal rat cardiomyocytes; settings: conference abstract, cited from earlier work
[2] = test system: reentry ventricular tachycardia; assay: Ventricular reentry arrhythmias in dogs after coronary artery occlusion; assay type: in vivo, dog; settings: after the lowest dose (bolus 0.1 μg/kg; infusion 2 ng/kg/min) i.v.
Experimental: Three dogs were studied in the anesthetized, open chest state to facilitate electrode placement for mapping. α-chloralose was given as a bolus (200 mg/kg) and then a constant infusion at 8 mg/kg/hr (dissolved in polyethylene glycol, MW=200). The femoral vein and artery was cannulated for administration of fluid and drugs and for measurement of ascending aortic pressure, respectively.
The sinus node was clamped and the atrial appendage was paced with a programmable stimulator with constant current outputs at two times diastolic threshold. Pacing rate was ≧200 b/min to control heart rates. […] Late ventricular diastolic threshold was measured during each intervention; the pacing current was four times threshold.
Test sites were chosen along the shaft of 16 pole needles (J. Kassell, Fayetteville, N.C.); each pole completely surrounds the needle shaft to prevent directionality of needle orientation from recording of adjacent Purkinje strands. Six bipolar electrograms (1 mm spacing) were recorded sequentially down the shaft of the needle by amplifying up to 1000 times, filtering from 3-1300 Hz and recording via oscilloscope during atrial pacing. Four intramural electrograms are recorded on each multipolar needle. […] Inter-needle distance measured on epicardium varies over 6-10 mm in dogs weighing 12-16 kg. […]

[3] = test system: ROS 17/2.8 cells; assay: Intercellular calcium waves after mechanical stimulation, ROS 17/2.8 cells; assay type: cell-based, rat; settings: 48 hours hypoxia 3-6% O2; 10^−8 M, 10 minutes; 2.2 cells before
Experimental: ROS 17/2.8 cells: Cells were cultured in 100 mm dishes at 37° C. with 5% CO2 and medium change every 2-3 days. ROS medium (all reagents obtained from Life Technologies): MEM (Cat.No. 31095) supplemented with 10% heat-inactivated calf serum (Cat.No. 16170), 1% NEAA (Cat.No. 11140), 1% Sodium Pyruvate (Cat.No. 11360), 1% L-Glutamine (Cat.No. 25030) and 0.1% Penicillin/Streptomycin (Cat,No. 15140). For video imaging experiments, cells were plated on coverslips at 2-3×10^5 cells/coverslip and cultured for 2-3 days before use.
The cells cultured on coverslips were loaded with 5 μM fura-2-AM (Molecular Probes, Cat.No. F-1221), for 30 minutes at 37° C., and incubated in fresh medium for 20 minutes. Coverslips were then affixed to a PDMI-2 culture chamber (Medical Systems Corp.), maintained at 37° C. with superfused CO2, on a Zeiss Axiovert microscope. Intercellular calcium waves were induced by mechanical stimulation of a single cell using a borosilicate glass micro pipette affixed to an Eppendorf 5171 micromanipulator. Imaging was performed using a MetaMorph imaging system (Universal Imaging). The excitation light (340 and 380 nm) was provided by a monochromator (T.I.L.L. Photonics GmbH). Images were acquired with an intensified CCD camera (Dage MTI) and digitized with a Matrox MVP image processing board.

[4] = test system: human osteoblastic cells; assay: DDT-induced uncoupling in human osteoblast cells, Lucifer Yellow microinjection; assay type: cell-based; settings: after DDT 13 μM 60 minutes; 10^−8 mol/l, 10 minutes; p<0.01
Experimental: Human osteoblast cells: Cells were isolated from human bone marrow obtained by puncture of the posterior iliac spine of healthy volunteers (aged 20-36): 10-15 ml marrow material was collected in 15 ml PBS+Ca, Mg (Life Technologies, Cat.No. 14040) with 100 U/ml Heparin (Sigma, Cat.No. H-3149). The mononuclear fraction of the marrow was isolated on a Lymphoprep gradient (Nycomed Pharma, Cat.No. 1001967), by centrifugation at 2200 rpm for 30 min. After harvesting, the mononuclear fraction was washed once with culture medium and centrifuged at 1800 rpm for 10 min. Subsequently cells were counted and plated in culture medium at 8×10^6 cells/100 mm dish. hOB medium (all reagents obtained from Life Technologies): MEM w/o Phenol Red w/Glutamax (Cat.No. 041-93013) supplemented with 10% heat inactivated fetal calf serum (Cat.No. 10106) and 0.1% Penicillin/Streptomycin (Cat.No. 15140). Medium was changed the following day and the cells were cultured at 37° C. in 5%CO2 with medium change every 7 days. After 3-4 weeks of culture the cells had reached 70% confluence. The medium was then supplemented with 100 nM Dexamethasone (Sigma, Cat.No. D-4902) for 7 days. Cells were then plated for video imaging experiments: a 25 mm #1 glass coverslip was placed in a 35 mm dish (or each well of a 6-well multidish), cells were plated at 2.5×10^5 cells/coverslip and cultured for 2-3 days before use. […]

[5] = test system: human osteoblast; settings: human osteoblast cultures and rat osteosarcoma cell lines; conference abstract; cited from earlier work
[6] = test system: alkaline phosphatase (ALP) activity of human osteoblasts; assay: Alkaline phosphatase assay, human osteoblasts; assay type: cell-based
Experimental: Day 1: Cells were plated in 96-well plates at a conc. of 8000 cells/well (hOB) or 3000 cells/well (ROS) in 200 μl normal culture medium.
Day 2: Medium was changed on the cells.
Day 4: (Day 3 for ROS): Cells were washed with 200 μl MEM, 0.1% BSA (Sigma, Cat.No. A-9418).
Day 8: (Day 5 for ROS): Alkaline Phosphatase (ALP) assay is a colorimetric endpoint method for measuring enzyme activity, and was done using Alkaline Phosphatase Kit (Sigma, Cat.No. 104-LL): Cells were washed once with 200 μl PBS+Ca,Mg. 100μl Alkaline Buffer Solution was added to each well and plate was placed at 37° C. for 10 min. 100 μl Substrate Solution was added to each well and plate was incubated at 37° C. for 30 min. 100 μl 2.0 N NaOH was added to each well to stop the reaction. Absorbance was measured using a plate reader at 405 nm.

What does the source list for “Ac-D-Tyr-D-Pro-D-4Hyp-Gly-D-Ala-Gly-NH2 [Compound 2]”?
noradrenalin-induced level of PI turnover ([1]; normal athmospheric and nutritional conditions): do not alter; noradrenalin-induced PI turnover, % of the normal level ([1]; oxygen and glucose deprivation): ~90%; inducibility of epicardial reentry VT [2]: no longer inducible; average number of cells in the calcium wave [3]: 5.4 cells; cell-to-cell dye transfer, median number of cells [4]: 8.3 cells; hypoxia-induced decrease of intercellular communication [5]: completely reversed; stimulation of ALP activity during hypoxia, greater than during normoxia ([6]; 5% O2 four days, 10^−11 to 10^−8 mol/l): about 15%; ALP activity ([6]; normal culture conditions, 1×10^−13 to 1×10^−6): increased ALP activity at most of the concentrations tested
